Measured values reported in patent US5059442A, “Primary amide esters as low calorie fat mimetics” (Nabisco Brands, Inc., priority 1989, dated 1991).

How the values were obtained:
[1] = in vivo animal feeding study for caloric availability; design: species or system male Sprague-Dawley rats; details: rats, diet of 50% fort and 21% test compound, 14 days; from weight gain and corn oil base line correlation
Description: This example illustrates how the novel fat mimetics of this invention are screened for caloric availability by a carefully controlled in vivo animal feeding study.
An experimental relationship between total calories ingested and animal body weight gain is established by monitoring the body weight gain associated with consumption of a nutritionally balanced diet containing varying concentrations of a reference substance such as corn oil which has a known caloric availability. Correlations between total calories ingested and body weight gain are excellent (r=0.99).
Caloric availability of a test material is evaluated by substituting a specific weight of the test material for the reference substance and observing the body weight gain. The gain in body weight is equated to a total number of calories using the correlation previously established for the reference data. The estimated number of calories ingested are divided by the weight of test material to give the apparent calories per gram for the test material. Generally speaking, in these bioavailability studies, the degree of perianal pelt soiling correlates with reduced bioavailability.
The test animals are six-week-old male Sprague-Dawley rats obtained from the Portage, Michigan facility of the Charles River Laboratories, Inc. After acclimation for 15 days, the test duration is 14 days. […]

[2] = in vitro digestibility: hydrolysis with pancreatic lipase; assay type: in vitro ADME, porcine; details: pig, pH 7.1 buffer, 37° C., same conditions as triolein control
Procedure: (§1) This example outlines the procedure for estimating the in vitro digestibility of the synthetic fat mimetics of this invention.
(§2) 1. Buffer: A pH 7.1 phosphate buffer is prepared by dissolving 6.8 g KH2 PO4 in 1 L of millipore filtered water (to yield 0.05 M phosphate). Fifty mg Ca(NO3)2 is added and 5.0 g cholic acid (Na salt, an ox bile isolate from Sigma) to give 0.3 mM Ca++ and 0.5 % cholic acid in 0.05 M phosphate. The pH is adjusted to approximately 7.1 with solid NaOH. Several drops of Baker "Resi-analyzed" toluene are added to prevent bacterial growth during storage at 3°-5° C. 2. Lipase: About 15 mg/mL commercial porcine pancreatic lipase from U.S. Biochemical Corporation is dissolved in buffer.
(§3) 3. Substrates and Standards: A 1.0 mL volumetric flask is charged with an amount of lipid substrate calculated to give a concentration of 200 nanomoles per microliter in Baker "Resianalyzed" toluene. (The proper concentration may be approximated by doubling the molecular weight of the lipid in question, dividing by 10, and diluting to the mark; this yields about 200 nanomoles per microliter.) This preparation affords the substrate to be used in the hydrolysis reactions.
(§4) Fatty acids and glyceride standards from Nu Chek or Sigma are prepared for elution on TLC plates (prewashed with 1:1 chloroform/methanol) by diluting the substrate solution with 10:1 toluene (1 part substrate plus 9 parts toluene) in septum vials.
(§5) In a 25 mL Erlenmeyer, emulsify 20 mL buffer and 40 microliters of substrate using an ultrasonic disrupter at a microtip maximum setting for approximately 10 seconds. […] Place in a 37° C. water bath and stir vigorously. After temperature equilibration, add 40 microliters of enzyme solution and start timing. Remove 5.0 mL aliquots at convenient time intervals for analysis. To establish a standard curve for triolein, aliquots are taken at 10, 20, 30 and 40 minutes.
(§6) Add the aliquot to a 15 mL glass centrifuge tube containing a drop of concentrated HCl. Add approximately 3 mL of a 2:1 mixture of CHCl3 :CH3 OH and shake vigorously. Centrifuge at approximately 5000 rpm for 5 minutes and transfer the bottom layer with a Pasteur pipet to a 5 mL septum vial. Repeat the extraction step once and combine the two bottom layers. Evaporate the solvent in nitrogen gas. After about half of the solvent is removed, add an equivalent volume absolute ethanol and continue evaporation in a nitrogen stream until dryness is achieved. Samples may be warmed with a heat gun to facilitate drying.
(§7) When the samples are dry, add exactly 200 microliters of toluene containing 10% DMSO, cap tightly, and spot TLC plate with 2.0 microliters per channel. […]

[3] = tested on: porcine pancreatic lipase; assay: as above; assay type: in vitro ADME; details: pH 7.1 buffer, 37° C., in 10 minutes
Procedure: as §1, §2, §3, §4, §5, §6, §7

[4] = rat, in vivo; cited from earlier work

| Compound | metabolised [2] [%] | further results |
| --- | --- | --- |
| CCCCCCCC/C=C\CCCCCCCC(=O)NCC(COC(=O)CCCCCCC/C=C\CCCCCCCC)OC(=O)CCCCCCC/C=C\CCCCCCCC (stereo not drawn) [Example 2, 2,3-Bis(oleyoyloxy)propyl oleamide] | 50 | caloric availability (kcal/gram upon being metabolized) [1]: about 3.3 kcal/gram |
| CCCCCCCC/C=C\CCCCCCCC(=O)NC(COC(=O)CCCCCCC/C=C\CCCCCCCC)COC(=O)CCCCCCC/C=C\CCCCCCCC [Example 3, 1,3-Bis(oleoyloxy)propyl 2-oleamide] | 50 | – |
| CCCCCCCC/C=C\CCCCCCCC(=O)NC(C)(COC(=O)CCCCCCC/C=C\CCCCCCCC)COC(=O)CCCCCCC/C=C\CCCCCCCC [Example 4, 2-Methyl-1,3-bis(oleoyloxy)propyl 2-oleamide] | 10 | – |
| CCCCCCCC/C=C\CCCCCCCC(=O)OCC(COC(=O)CCCCCCC/C=C\CCCCCCCC)OC(=O)CCCCCCC/C=C\CCCCCCCC [triolein] | – | hydrolysis of triglyceride control [3]: substantially hydrolyzed |
| corn oil | – | caloric availability of reference substance [4]: 9.0 kcal/gm |
